Test results published in patent publication US10233201B2, “Class of HDAC inhibitors expands the renal progenitor cells population and improves the rate of recovery from acute kidney injury” (University of Pittsburgh—Of the Commonwealth System of …, priority 2012, dated 2019).

Columns and labels:
[1] = system: renal progenitor cells (lhx1a expression); test: In situ hybridization for lhx1a expression in 10-somite embryos (renal progenitor cell expansion); assay type: in vivo; details: for lhx1a expansion class, 800 nM: 800 nM from 2 hpf; for lhx1a expansion class, 800 nM: key: effective (+); partially effective (+/−); ineffective (−); Analogs that killed all embryos at a given concentration before reaching 10 somites are listed as XX
Summary of the method: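 Zebrafish embryos treated with compound, then colorimetric whole-mount in situ hybridization for lhx1a mRNA at 10-somite stage (hybridization 65 °C). Percent embryos with expanded kidney field counted manually; EC50 read as the 50% point of the plotted curve.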

[2] = system: renal progenitor cells; test: Tg(lhx1a:EGFP) reporter: renal progenitor cell counting; assay type: in vivo, zebrafish
Procedure: Tg(lhx1a:EGFP)^pt303 embryos were treated with 3 μM PTBA and then fixed in 4% paraformaldehyde in PBS for 8 hours at 4° C. Embryos were washed in PBS containing 0.1% TWEEN 20 (PBT) and incubated in 1 μg/ml DAPI in PBT for 30 minutes at room temperature. Embryos were flat-mounted on glass slides with Cytoseal 60 and imaged with either a Leica M205 FA epifluorescent microscope or an Olympus FluoView 1000 confocal microscope. Confocal projections contained stacks of six 3 μm images. A predefined box was positioned at the most posterior region of the notochord and included the most lateral GFP-positive cell in a kidney field. The cells that were positive for both GFP and DAPI within this box were counted manually with the aid of ImageJ. Variances of the control and PTBA-treated groups were compared by F test and found to be unequal. Therefore, a two-tailed t test with unequal variance was used to determine significance (α=0.05).
For all second-generation compounds, the cad17:EGFP transgene is used as the primary readout to assay for expansion of kidney field (FIG. 35). PTBA analogues that expand cad17:EGFP expression are subjected to a secondary screen. […] Such compounds are assessed in target efficacy and toxicity assays.

[3] = system: cyp26a1, cmlc2; test: In situ hybridization for RA-responsive genes in 18-somite embryos; assay type: in vivo, zebrafish; details: 3 μM
Procedure: In situ hybridization and immunocytochemistry: In situ hybridization was performed as previously described with some modifications. 142 Hybridization temperature was 65° C. Embryos were blocked in 2% blocking reagent (Roche) with 5% sheep serum in MAB (100 mM maleic acid and 150 mM NaCl [pH 7.5]). Whole-mount immunocytochemistry with 1:25 mouse anti-α6F antibody (Developmental Studies Hybridoma Bank) and 1:100 Cy3 secondary antibody (Jackson ImmunoResearch) was performed as described previously. 108 Embryos were embedded in JB-4 for sectioning per the manufacturer's instructions (Polysciences), sectioned at 5 μm, and mounted with Cytoseal 60 (Richard-Allan Scientific).
HDACis are believed to lower the threshold of RA necessary to activate transcription. If PTBA treatment facilitates activation of the RA pathway, then expression of genes responsive to RA signaling should change. […] In a previous study, cmlc2 expression was assessed for RAdependent effects in 18-somite embryos (Keegan, B. R., Feldman, J. L., Begemann, G., Ingham, P. W. & Yelon, D. Retinoic acid signaling restricts the cardiac progenitor pool. Science 307, 247-249, (2005)), therefore embryos were collected at the 18-somite stage for continuity. […]

Row | SMILES | lhx1a expansion class, 800 nM [1] | embryos with expanded lhx1a expression ([1]; 0.5% DMSO at 5 hpf, 3 μM PTBA at 8 hpf) | responders at 0.8 µM ([1]; Danio rerio, 800 nM, read-out: embryos with expanded lhx1a expression (% expansion)) | embryos with expanded lhx1a expression ([1]; injected with 200 pg DN-RARα mRNA, then 3 μM PTBA at 5 hpf) | increase in the number of renal progenitor cells ([2]; 3 μM, 10-somite Tg(lhx1a:EGFP)pt303 embryos) | embryos with decreased cmlc2 expression [3] | embryos with increased cyp26a1 expression [3] | effective dose for the renal progenitor assay ([1]; zebrafish, in vivo) | lowest dose at which expansion of the renal progenitor cell population starts to be seen ([2]; lhx1a:EGFP transgene, data not shown)
1 | O=C(O)CCCSc1ccccc1 [PTBA, 4-(phenylthio)butanoic acid] | +/− | 97% | < 25% | 19% | 2.4 fold | 100% | 100% | – | –
2 | COC(=O)CCCSc1ccccc1 [UPHD-00025, methyl 4-(phenylsulfanyl) butanoate] | +/− | – | – | – | – | – | – | ~800 nM | 600 nM
